# Test results from ChEMBL document CHEMBL1275405, “Population pharmacokinetics of levofloxacin, gatifloxacin, and moxifloxacin in adults with pulmonary tuberculosis” (Antimicrob Agents Chemother, 2008).
# Tests used:
# [1] = Tmax in tuberculosis patient at […], po administered for 7 days by HPLC; format: ADME, organism-based; details: human, in vivo
# clinical [2] = details: human, in vivo, po, 400 mg/day
# Description: Tmax in tuberculosis patient at 400 mg/day, po administered for 7 days by HPLC
# [3] = tested on: Mycobacterium tuberculosis; assay: microbe, parasite or virus in culture; details: 168 h
# Description: Antimicrobial activity against Mycobacterium tuberculosis infected in patient at 400 mg/day, po administered for 7 days by HPLC
# [4] = Clearance in tuberculosis patient at 1000 mg/day, po administered for 7 days measured after 24 hrs by HPLC; format: ADME, organism-based; details: human, in vivo
# [5] = tested on: Mycobacterium tuberculosis; format: functional; details: 168 h
# [6] = Ratio of fAUC in tuberculosis patient at 1000 mg/day, po administered for 7 days to MIC for Mycobacterium tuberculosis; format: functional
# clinical [7] = details: human, in vivo, po, 1000 mg/day
# Description: Cmax in tuberculosis patient at 1000 mg/day, po administered for 7 days by HPLC
SMILES,Tmax [1],Tmax at 168 h (clinical [2]),MIC [3],CL/F [4],MIC [5],RatioAUC/MIC [6],Cmax at 168 h (clinical [7])
COc1c(N2CCNC(C)C2)c(F)cc2c(=O)c(C(=O)O)cn(C3CC3)c12 (centres undefined) [GATIFLOXACIN],8 h,2 h,0.2 µg/mL,–,–,–,–
C[C@H]1COc2c(N3CCN(C)CC3)c(F)cc3c(=O)c(C(=O)O)cn1c23.C[C@H]1COc2c(N3CCN(C)CC3)c(F)cc3c(=O)c(C(=O)O)cn1c23.O [LEVOFLOXACIN],–,–,–,79 mL/min,0.5 µg/mL,187.67,9000 ng/mL
COc1c(N2C[C@@H]3CCCN[C@@H]3C2)c(F)cc2c(=O)c(C(=O)O)cn(C3CC3)c12 [MOXIFLOXACIN],–,2 h,0.5 µg/mL,–,–,–,–
